According to the supplement of paper PMC12463676, “Small-molecule dissolution of stress granules by redox modulation benefits ALS models” (Nature Chemical Biology, 2025):

compound: NC(=O)CCCCC1CCSS1 [lipoamide]; assay: thermal stability z-score vs DMSO; higher = more thermally stabilized by treatment; details: HeLa; lipoamide concentration 100 µM; arsenate co-treatment: 1 mM arsenate 1 h
Method: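 Cellular thermal proteome profiling in HeLa cells. Cells were treated with 100 µM lipoamide for 1 h, with or without 1 mM arsenate for a further 1 h, then heated to ten temperatures (37-66.3 °C), and soluble protein was quantified by TMT mass spectrometry relative to 0.1% DMSO controls. The thermal stability score (sum of log2 fold changes minus the abundance score) was transformed to a z-score; mean of n = 3 experiments.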
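Also: each temperature applied for 3 min, abundance score taken as mean log2 fold change at the two lowest temperatures, z-score obtained by mean subtraction and division by SD.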

UniProt Q9H0G5, sequence (Q9H0G5 whole entry): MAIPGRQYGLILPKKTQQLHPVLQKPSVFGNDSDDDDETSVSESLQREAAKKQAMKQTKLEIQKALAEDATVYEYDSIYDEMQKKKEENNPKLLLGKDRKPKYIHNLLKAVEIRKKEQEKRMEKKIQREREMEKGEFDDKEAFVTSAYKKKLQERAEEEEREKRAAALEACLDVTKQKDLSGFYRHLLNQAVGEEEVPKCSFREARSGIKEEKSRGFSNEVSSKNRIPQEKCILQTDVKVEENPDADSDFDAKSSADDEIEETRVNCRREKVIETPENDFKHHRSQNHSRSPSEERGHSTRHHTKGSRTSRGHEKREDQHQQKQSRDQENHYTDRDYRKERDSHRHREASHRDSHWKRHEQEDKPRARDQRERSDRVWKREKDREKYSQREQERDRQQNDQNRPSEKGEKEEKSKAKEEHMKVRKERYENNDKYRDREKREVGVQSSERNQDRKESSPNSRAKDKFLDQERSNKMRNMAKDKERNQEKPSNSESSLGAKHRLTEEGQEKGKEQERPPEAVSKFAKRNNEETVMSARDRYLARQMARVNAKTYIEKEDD
UniProt P31948, sequence (P31948 whole entry, looked up): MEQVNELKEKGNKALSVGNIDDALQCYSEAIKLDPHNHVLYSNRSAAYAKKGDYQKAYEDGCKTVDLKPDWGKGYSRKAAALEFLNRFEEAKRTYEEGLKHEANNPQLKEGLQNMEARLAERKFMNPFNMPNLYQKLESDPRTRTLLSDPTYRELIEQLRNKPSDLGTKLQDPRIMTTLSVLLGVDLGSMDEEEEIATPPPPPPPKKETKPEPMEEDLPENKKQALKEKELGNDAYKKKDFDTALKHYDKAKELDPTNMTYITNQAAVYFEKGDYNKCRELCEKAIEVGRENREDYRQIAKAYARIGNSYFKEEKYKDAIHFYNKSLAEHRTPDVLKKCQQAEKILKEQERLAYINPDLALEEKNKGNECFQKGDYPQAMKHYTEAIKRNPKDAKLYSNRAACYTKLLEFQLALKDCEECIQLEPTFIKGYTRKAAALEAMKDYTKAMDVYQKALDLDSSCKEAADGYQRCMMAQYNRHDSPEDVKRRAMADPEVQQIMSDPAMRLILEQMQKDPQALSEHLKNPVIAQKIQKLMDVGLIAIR
UniProt Q9P0L0, sequence (Q9P0L0 whole entry): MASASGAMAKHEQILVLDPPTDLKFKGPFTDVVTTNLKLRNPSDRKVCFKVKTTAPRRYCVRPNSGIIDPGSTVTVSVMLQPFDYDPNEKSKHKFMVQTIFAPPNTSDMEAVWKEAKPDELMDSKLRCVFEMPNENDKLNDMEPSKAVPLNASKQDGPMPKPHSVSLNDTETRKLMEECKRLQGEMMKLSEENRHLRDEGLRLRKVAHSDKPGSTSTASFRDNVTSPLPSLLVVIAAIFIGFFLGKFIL
UniProt Q9H1C4, sequence (Q9H1C4 whole entry): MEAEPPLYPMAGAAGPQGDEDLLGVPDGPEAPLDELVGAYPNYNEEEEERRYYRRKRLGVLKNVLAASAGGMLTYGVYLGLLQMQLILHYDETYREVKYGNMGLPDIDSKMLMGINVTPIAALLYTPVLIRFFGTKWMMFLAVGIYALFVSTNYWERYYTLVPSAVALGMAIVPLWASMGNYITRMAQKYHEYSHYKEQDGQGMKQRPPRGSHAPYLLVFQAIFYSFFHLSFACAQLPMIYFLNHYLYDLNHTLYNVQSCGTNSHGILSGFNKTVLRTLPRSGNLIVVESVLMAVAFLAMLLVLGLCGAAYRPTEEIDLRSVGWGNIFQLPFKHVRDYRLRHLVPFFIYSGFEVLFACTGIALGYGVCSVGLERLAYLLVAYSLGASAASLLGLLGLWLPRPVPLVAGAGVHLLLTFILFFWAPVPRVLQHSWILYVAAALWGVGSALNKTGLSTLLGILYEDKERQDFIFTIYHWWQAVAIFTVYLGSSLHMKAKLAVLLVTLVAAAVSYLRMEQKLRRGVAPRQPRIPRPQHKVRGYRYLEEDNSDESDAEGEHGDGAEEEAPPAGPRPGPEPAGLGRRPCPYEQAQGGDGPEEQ
UniProt Q9HD34, sequence (Q9HD34 whole entry): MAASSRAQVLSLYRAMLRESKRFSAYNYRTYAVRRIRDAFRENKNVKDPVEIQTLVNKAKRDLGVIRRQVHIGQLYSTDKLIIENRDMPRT
UniProt Q8NBN7, sequence (Q8NBN7 whole entry): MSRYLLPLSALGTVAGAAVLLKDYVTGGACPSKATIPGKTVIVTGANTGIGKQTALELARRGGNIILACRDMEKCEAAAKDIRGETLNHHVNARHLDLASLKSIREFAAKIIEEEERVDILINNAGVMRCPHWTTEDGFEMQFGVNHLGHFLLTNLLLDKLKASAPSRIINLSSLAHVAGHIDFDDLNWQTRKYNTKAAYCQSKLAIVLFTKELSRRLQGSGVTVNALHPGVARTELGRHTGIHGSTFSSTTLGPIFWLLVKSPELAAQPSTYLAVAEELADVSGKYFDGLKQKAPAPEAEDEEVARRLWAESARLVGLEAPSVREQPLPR
UniProt Q9P2X3, sequence (Q9P2X3 whole entry): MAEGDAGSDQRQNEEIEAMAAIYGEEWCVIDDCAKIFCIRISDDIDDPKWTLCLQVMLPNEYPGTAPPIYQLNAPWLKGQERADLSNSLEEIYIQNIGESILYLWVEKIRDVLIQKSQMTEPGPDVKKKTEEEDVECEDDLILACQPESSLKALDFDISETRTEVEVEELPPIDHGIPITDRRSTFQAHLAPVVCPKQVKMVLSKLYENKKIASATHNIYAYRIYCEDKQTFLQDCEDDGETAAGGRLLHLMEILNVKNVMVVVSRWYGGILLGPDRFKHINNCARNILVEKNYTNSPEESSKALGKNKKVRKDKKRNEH
UniProt O95274, sequence (O95274 whole entry): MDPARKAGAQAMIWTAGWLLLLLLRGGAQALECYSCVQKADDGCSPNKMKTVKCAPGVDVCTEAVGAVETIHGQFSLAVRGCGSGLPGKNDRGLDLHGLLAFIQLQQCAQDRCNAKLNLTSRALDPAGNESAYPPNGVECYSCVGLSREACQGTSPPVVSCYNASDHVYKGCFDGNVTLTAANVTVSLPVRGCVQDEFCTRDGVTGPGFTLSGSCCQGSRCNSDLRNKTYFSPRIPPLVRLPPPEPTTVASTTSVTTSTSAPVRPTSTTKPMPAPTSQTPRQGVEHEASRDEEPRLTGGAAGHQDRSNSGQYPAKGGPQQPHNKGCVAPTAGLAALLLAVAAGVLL
UniProt Q92733, sequence (Q92733 whole entry): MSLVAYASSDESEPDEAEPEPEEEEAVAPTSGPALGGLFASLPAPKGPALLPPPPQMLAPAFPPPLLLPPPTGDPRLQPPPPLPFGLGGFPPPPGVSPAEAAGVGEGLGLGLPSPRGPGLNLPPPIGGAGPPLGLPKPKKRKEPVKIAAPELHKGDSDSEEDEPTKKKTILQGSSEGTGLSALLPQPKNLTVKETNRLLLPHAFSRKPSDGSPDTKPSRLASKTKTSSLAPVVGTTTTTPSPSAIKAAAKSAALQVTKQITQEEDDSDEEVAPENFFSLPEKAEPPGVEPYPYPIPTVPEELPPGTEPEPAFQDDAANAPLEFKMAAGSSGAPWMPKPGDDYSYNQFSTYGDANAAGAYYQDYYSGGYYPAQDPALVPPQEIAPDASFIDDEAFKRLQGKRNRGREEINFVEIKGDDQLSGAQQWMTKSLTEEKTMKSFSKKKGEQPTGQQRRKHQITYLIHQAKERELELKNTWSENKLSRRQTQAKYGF
UniProt P21912, sequence (P21912 whole entry): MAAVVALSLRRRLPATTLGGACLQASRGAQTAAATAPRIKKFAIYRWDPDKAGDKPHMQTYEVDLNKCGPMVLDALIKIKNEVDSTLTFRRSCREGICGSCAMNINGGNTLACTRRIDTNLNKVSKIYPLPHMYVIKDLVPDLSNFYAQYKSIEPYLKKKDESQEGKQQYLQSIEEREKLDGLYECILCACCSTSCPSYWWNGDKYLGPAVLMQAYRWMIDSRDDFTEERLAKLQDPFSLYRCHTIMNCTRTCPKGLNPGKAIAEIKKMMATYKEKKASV
UniProt Q5T6F2, sequence (Q5T6F2 whole entry): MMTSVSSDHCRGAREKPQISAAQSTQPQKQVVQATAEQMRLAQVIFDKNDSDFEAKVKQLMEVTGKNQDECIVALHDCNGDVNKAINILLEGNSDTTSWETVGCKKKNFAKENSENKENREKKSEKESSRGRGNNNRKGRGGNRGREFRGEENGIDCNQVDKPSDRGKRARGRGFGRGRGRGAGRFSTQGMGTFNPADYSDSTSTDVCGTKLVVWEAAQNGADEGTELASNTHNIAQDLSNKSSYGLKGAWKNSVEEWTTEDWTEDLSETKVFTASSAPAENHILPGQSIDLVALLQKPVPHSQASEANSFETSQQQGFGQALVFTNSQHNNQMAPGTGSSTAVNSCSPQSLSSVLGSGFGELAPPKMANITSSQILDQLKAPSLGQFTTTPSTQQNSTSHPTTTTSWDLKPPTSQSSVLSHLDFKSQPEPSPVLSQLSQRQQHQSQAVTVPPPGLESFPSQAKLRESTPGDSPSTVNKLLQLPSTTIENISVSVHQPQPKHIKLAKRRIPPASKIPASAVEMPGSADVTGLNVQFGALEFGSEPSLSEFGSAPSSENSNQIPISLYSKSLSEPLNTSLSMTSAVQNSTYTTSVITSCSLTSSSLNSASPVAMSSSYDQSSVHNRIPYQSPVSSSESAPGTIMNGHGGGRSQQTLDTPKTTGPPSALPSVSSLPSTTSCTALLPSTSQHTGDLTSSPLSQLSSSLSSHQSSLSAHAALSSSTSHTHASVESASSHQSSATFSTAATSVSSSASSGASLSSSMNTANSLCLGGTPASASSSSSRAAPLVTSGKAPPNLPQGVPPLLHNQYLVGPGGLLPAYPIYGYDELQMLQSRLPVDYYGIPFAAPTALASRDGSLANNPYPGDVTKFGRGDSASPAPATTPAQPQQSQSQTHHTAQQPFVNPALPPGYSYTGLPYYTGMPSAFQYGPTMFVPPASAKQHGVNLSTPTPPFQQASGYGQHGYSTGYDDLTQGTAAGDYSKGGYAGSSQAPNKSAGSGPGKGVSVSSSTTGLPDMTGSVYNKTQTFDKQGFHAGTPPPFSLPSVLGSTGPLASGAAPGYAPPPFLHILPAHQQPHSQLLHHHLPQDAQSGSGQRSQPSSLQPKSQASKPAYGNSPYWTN

Q: With NSRP1 (UniProt Q9H0G5) as the target, how does the thermal stability z-score read?
A: 0.844

Q: How did the thermal stability z-score turn out when VAPA (UniProt Q9P0L0) was run?
A: 0.25

Q: With HYPK (UniProt Q9NX55) as the target, how does the thermal stability z-score read?
A: 0.716

Q: MLKL (UniProt Q8NB16) was tested. Which thermal stability z-score did it give?
A: 0.561

Q: Which thermal stability z-score does the source give for UBAP2 (UniProt Q5T6F2) here?
A: 0.26

Q: ATP6V1H (UniProt Q9UI12) was tested. Which thermal stability z-score did it give?
A: 0.0391

Q: For SIDT2 (UniProt Q8NBJ9), which thermal stability z-score is on record?
A: -1.33

Q: With PRCC (UniProt Q92733) as the target, how does the thermal stability z-score read?
A: 0.409

Q: TRMT6 (UniProt Q9UJA5) was tested. Which thermal stability z-score did it give?
A: 0.481

Q: For TOB1 (UniProt P50616), which thermal stability z-score is on record?
A: -1.37

Q: Which thermal stability z-score does the source give for UNC93B1 (UniProt Q9H1C4) here?
A: 0.172

Q: With LYRM4 (UniProt Q9HD34) as the target, how does the thermal stability z-score read?
A: -0.401

Q: Which thermal stability z-score does the source give for PKN2 (UniProt Q16513) here?
A: 0.0683

Q: Which thermal stability z-score does the source give for TP53BP2 (UniProt Q13625) here?
A: -1.06

Q: Which thermal stability z-score does the source give for LYPD3 (UniProt O95274) here?
A: -0.113

Q: With CLTCL1 (UniProt P53675) as the target, how does the thermal stability z-score read?
A: 0.147

Q: How did the thermal stability z-score turn out when SSBP1 (UniProt Q04837) was run?
A: 1.55

Q: With SLC25A3 (UniProt Q00325) as the target, how does the thermal stability z-score read?
A: 0.802

Q: Which thermal stability z-score does the source give for STIP1 (UniProt P31948) here?
A: 0.275

Q: How did the thermal stability z-score turn out when SF3B3 (UniProt Q15393) was run?
A: 1.49

Q: How did the thermal stability z-score turn out when IMPACT (UniProt Q9P2X3) was run?
A: 0.0967

Q: RPS15A (UniProt P62244) was tested. Which thermal stability z-score did it give?
A: 0.437

Q: For RBM33 (UniProt Q96EV2), which thermal stability z-score is on record?
A: 0.0301

Q: SORCS2 (UniProt Q96PQ0) was tested. Which thermal stability z-score did it give?
A: -0.156

Q: RDH13 (UniProt Q8NBN7) was tested. Which thermal stability z-score did it give?
A: -0.0891

Q: DCTN1 (UniProt Q14203) was tested. Which thermal stability z-score did it give?
A: -0.27

Q: TEX2 (UniProt Q8IWB9) was tested. Which thermal stability z-score did it give?
A: 0.11

Q: How did the thermal stability z-score turn out when CTR9 (UniProt Q6PD62) was run?
A: 0.156

Q: SDHB (UniProt P21912) was tested. Which thermal stability z-score did it give?
A: -0.24

Q: How did the thermal stability z-score turn out when RAB12 (UniProt Q6IQ22) was run?
A: 1.06

same assay, conditions: HeLa; lipoamide concentration 100 µM; arsenate co-treatment: none

Q: How did the thermal stability z-score turn out when NSRP1 (UniProt Q9H0G5) was run?
A: 0.0777

Q: For VAPA (UniProt Q9P0L0), which thermal stability z-score is on record?
A: -0.0574

Q: With HYPK (UniProt Q9NX55) as the target, how does the thermal stability z-score read?
A: 0.592

Q: With MLKL (UniProt Q8NB16) as the target, how does the thermal stability z-score read?
A: 0.379

Q: With UBAP2 (UniProt Q5T6F2) as the target, how does the thermal stability z-score read?
A: -0.00688

Q: ATP6V1H (UniProt Q9UI12) was tested. Which thermal stability z-score did it give?
A: -0.146

Q: With SIDT2 (UniProt Q8NBJ9) as the target, how does the thermal stability z-score read?
A: -1.46

Q: Which thermal stability z-score does the source give for PRCC (UniProt Q92733) here?
A: -0.0293

Q: With TRMT6 (UniProt Q9UJA5) as the target, how does the thermal stability z-score read?
A: 0.683

Q: TOB1 (UniProt P50616) was tested. Which thermal stability z-score did it give?
A: -0.305

Q: UNC93B1 (UniProt Q9H1C4) was tested. Which thermal stability z-score did it give?
A: -0.000713

Q: Which thermal stability z-score does the source give for LYRM4 (UniProt Q9HD34) here?
A: 0.0692

Q: For PKN2 (UniProt Q16513), which thermal stability z-score is on record?
A: 0.467

Q: With TP53BP2 (UniProt Q13625) as the target, how does the thermal stability z-score read?
A: 0.188

Q: Which thermal stability z-score does the source give for LYPD3 (UniProt O95274) here?
A: 0.0676

Q: Which thermal stability z-score does the source give for CLTCL1 (UniProt P53675) here?
A: 0.15

Q: For SSBP1 (UniProt Q04837), which thermal stability z-score is on record?
A: 0.76

Q: SLC25A3 (UniProt Q00325) was tested. Which thermal stability z-score did it give?
A: 0.951

Q: How did the thermal stability z-score turn out when STIP1 (UniProt P31948) was run?
A: 0.371

Q: SF3B3 (UniProt Q15393) was tested. Which thermal stability z-score did it give?
A: 0.828

Q: With IMPACT (UniProt Q9P2X3) as the target, how does the thermal stability z-score read?
A: -0.0125

Q: Which thermal stability z-score does the source give for RPS15A (UniProt P62244) here?
A: 0.494

Q: Which thermal stability z-score does the source give for RBM33 (UniProt Q96EV2) here?
A: -0.534

Q: Which thermal stability z-score does the source give for SORCS2 (UniProt Q96PQ0) here?
A: -0.45

Q: With RDH13 (UniProt Q8NBN7) as the target, how does the thermal stability z-score read?
A: -0.278

Q: For DCTN1 (UniProt Q14203), which thermal stability z-score is on record?
A: -0.171

Q: For TEX2 (UniProt Q8IWB9), which thermal stability z-score is on record?
A: -0.0212

Q: CTR9 (UniProt Q6PD62) was tested. Which thermal stability z-score did it give?
A: 0.203

Q: For SDHB (UniProt P21912), which thermal stability z-score is on record?
A: -0.16

Q: With RAB12 (UniProt Q6IQ22) as the target, how does the thermal stability z-score read?
A: 1.06

compound: O=[As]([O-])(O)O.[K+] [potassium arsenate]; assay: as above; details: HeLa; arsenate concentration 1 mM
Method: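 Cellular thermal proteome profiling in HeLa cells treated with 1 mM arsenate for 1 h (DMSO pretreatment), heated to ten temperatures (37-66.3 °C). Soluble protein was quantified by TMT mass spectrometry relative to DMSO controls; the thermal stability score was transformed to a z-score; mean of n = 3 experiments.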

Q: Which thermal stability z-score does the source give for NSRP1 (UniProt Q9H0G5) here?
A: 1.07

Q: With VAPA (UniProt Q9P0L0) as the target, how does the thermal stability z-score read?
A: -1.14

Q: HYPK (UniProt Q9NX55) was tested. Which thermal stability z-score did it give?
A: -0.114

Q: Which thermal stability z-score does the source give for MLKL (UniProt Q8NB16) here?
A: -1.45

Q: Which thermal stability z-score does the source give for UBAP2 (UniProt Q5T6F2) here?
A: -0.47

Q: With ATP6V1H (UniProt Q9UI12) as the target, how does the thermal stability z-score read?
A: -0.0897

Q: How did the thermal stability z-score turn out when SIDT2 (UniProt Q8NBJ9) was run?
A: -1.91

Q: For PRCC (UniProt Q92733), which thermal stability z-score is on record?
A: 0.465

Q: With TRMT6 (UniProt Q9UJA5) as the target, how does the thermal stability z-score read?
A: 0.0561

Q: Which thermal stability z-score does the source give for TOB1 (UniProt P50616) here?
A: 0.159

Q: With UNC93B1 (UniProt Q9H1C4) as the target, how does the thermal stability z-score read?
A: 0.487

Q: For LYRM4 (UniProt Q9HD34), which thermal stability z-score is on record?
A: -0.348

Q: PKN2 (UniProt Q16513) was tested. Which thermal stability z-score did it give?
A: 0.144

Q: For TP53BP2 (UniProt Q13625), which thermal stability z-score is on record?
A: -1.29

Q: Which thermal stability z-score does the source give for LYPD3 (UniProt O95274) here?
A: -0.484

Q: How did the thermal stability z-score turn out when CLTCL1 (UniProt P53675) was run?
A: 0.858

Q: SSBP1 (UniProt Q04837) was tested. Which thermal stability z-score did it give?
A: 1.94

Q: How did the thermal stability z-score turn out when SLC25A3 (UniProt Q00325) was run?
A: 0.572

Q: STIP1 (UniProt P31948) was tested. Which thermal stability z-score did it give?
A: -0.157

Q: Which thermal stability z-score does the source give for SF3B3 (UniProt Q15393) here?
A: -0.681

Q: How did the thermal stability z-score turn out when IMPACT (UniProt Q9P2X3) was run?
A: 0.103

Q: RPS15A (UniProt P62244) was tested. Which thermal stability z-score did it give?
A: -0.776

Q: Which thermal stability z-score does the source give for RBM33 (UniProt Q96EV2) here?
A: -0.175

Q: Which thermal stability z-score does the source give for SORCS2 (UniProt Q96PQ0) here?
A: -0.319

Q: Which thermal stability z-score does the source give for RDH13 (UniProt Q8NBN7) here?
A: 0.307

Q: Which thermal stability z-score does the source give for DCTN1 (UniProt Q14203) here?
A: 0.369

Q: Which thermal stability z-score does the source give for TEX2 (UniProt Q8IWB9) here?
A: 0.0716

Q: CTR9 (UniProt Q6PD62) was tested. Which thermal stability z-score did it give?
A: 0.243

Q: For SDHB (UniProt P21912), which thermal stability z-score is on record?
A: -0.681

Q: RAB12 (UniProt Q6IQ22) was tested. Which thermal stability z-score did it give?
A: 0.678
